Reference: patent publication US9714239B2, “N-phenyl-lactam derivatives capable of stimulating neurogenesis and their use in the treatment of neurological disorders” (Hoffmann-La Roche Inc., priority 2014, dated 2017)

System: human embryonic stem cell derived neural stem cells (NSCs)
Assay: Neurogenesis assay: neural stem cell proliferation assay
Settings: 96 h, compound concentration at which 150% activity of control (100%) is reached, increase in cells based on ATP levels (CellTiterGlo), 4 days incubation, dose response 8 μM to 8 nM
Protocol: Neural Stem Cell Proliferation Assay
Neurogenic properties of small molecules are determined based on the proliferation of human embryonic stem cell derived neural stem cells (NSCs) which were derived via a dual smad inhibition as previously described (Chambers, S. M., et al., Highly efficient neural conversion of human ES and iPS cells by dual inhibition of SMAD signaling, Nature biotechnology, 2009 27(3): p. 275-80.).
Compounds response is measured by the increase in cells based on ATP levels (Promega:CellTiterGlo®) after an incubation period of 4 days. NSCs are thawed and expanded over 3 passages. On the 14th day, NSCs are seeded in Polyornithin/Laminin coated 384 well plates at a cell density of 21,000 cells/cm^2 in a media volume of 38 μl.
4 hours after cell seeding, compound solutions are added at a volume of 2 μl. Stock solutions of the compounds (water, 5% DMSO) are diluted to obtain a dose response (11 points, dilution factor is 2), ranging from 8 μM to 8 nM. Controls are run to consistently determine the neurogenic properties of the cells:
Negative (neutral) control is cell culture Media (final DMSO concentration: 0.25%).
1. cell culture Media+100 ng/ml FGF2 (final DMSO concentration: 0.1%)
2. cell culture Media+20 ng/ml EGF (final DMSO concentration: 0.1%)
3. cell culture Media+100 ng/ml Wnt3a (final DMSO concentration: 0.1%)
After 4 days incubation at 37° C., 5% CO2, the amount of ATP per well is quantified. The ATP concentration is proportional to the cell number. ATP is quantified by using the Promega CellTiterGlo® kit. The CellTiterGlo® reagents contain a cell lysis buffer, a thermo stable luciferase (UltraGlo™ recombinant luciferase), magnesium and luciferin. Luciferin reacts with ATP producing oxyluciferin, AMP and light. The luminescence signal is proportional to the ATP content.
The value of negative (neutral) control is determined for each assay plate by taking the average of 16 negative control wells. The neurogenic compound response is calculated for each compound as (compound/Negative Control)*100. The values of EC150 from the dose response curve are determined for each test compound. The EC150 is the compound concentration at which 150% activity of control (100%) is reached.

Structure (SMILES)	EC (150% of control) [µM]
COc1cccc(CN2CCN(c3ccc(-c4cn[nH]c4)cc3)C2=O)c1 [Example 27, 1-[(3-Methoxyphenyl)methyl]-3-[4-(1H-pyrazol-4-yl)phenyl]imidazolidin-2-one]	0.294
COc1cc(N2CCC(Cc3ccccc3)C2=O)ccc1-c1cn[nH]c1 (centres unmarked) [Example 23, 3-Benzyl-1-(3-methoxy-4-(1H-pyrazol-4-yl)phenyl)pyrrolidin-2-one]	0.612
COc1cccc(CN2CCN(c3ccc(-c4cn[nH]c4)c(Cl)c3)C2=O)c1 [Example 29, 1-[3-Chloro-4-(1H-pyrazol-4-yl)phenyl]-3-[(3-methoxyphenyl)methyl]imidazolidin-2-one]	0.366
COc1cccc(C2CCN(c3ccc(-c4cn[nH]c4)c(OC)c3)C2=O)c1 (centres unmarked) [Example 24, 1-(3-Methoxy-4-(1H-pyrazol-4-yl)phenyl)-3-(3-methoxyphenyl)pyrrolidin-2-one]	0.0299
CCC(c1ccccc1)N1CCN(c2ccc(-c3cn[nH]c3)c(OC)c2)C1=O (centres unmarked) [Example 51, 1-[3-Methoxy-4-(1H-pyrazol-4-yl)phenyl]-3-(1-phenylpropyl)imidazolidin-2-one]	0.594
O=C1N(Cc2ccccc2)CCN1c1ccc(-c2ccncc2)cc1 [Example 2, 1-Benzyl-3-(4-(pyridin-4-yl)phenyl)imidazolidin-2-one]	1.04
COc1cc(N2CCN(Cc3cccc(Cl)c3)C2=O)ccc1-c1cn[nH]c1 [Example 18, 1-[(3-Chlorophenyl)methyl]-3-[3-methoxy-4-(1H-pyrazol-4-yl)phenyl]imidazolidin-2-one]	0.395
COc1cc(N2CCN(CCc3cccc(Cl)c3)C2=O)ccc1-c1cn[nH]c1 [Example 49, 1-[2-(3-Chlorophenyl)ethyl]-3-[3-methoxy-4-(1H-pyrazol-4-yl)phenyl]imidazolidin-2-one]	1.73
COc1cc(N2CCN(Cc3cccnc3)C2=O)ccc1-c1cn[nH]c1 [Example 48, 1-[3-Methoxy-4-(1H-pyrazol-4-yl)phenyl]-3-(3-pyridylmethyl)imidazolidin-2-one]	0.119
COc1cccc(CN2CCN(c3ccc(-c4cn[nH]c4)cc3Cl)C2=O)c1 [Example 46, 1-[2-Chloro-4-(1H-pyrazol-4-yl)phenyl]-3-[(3-methoxyphenyl)methyl]imidazolidin-2-one]	1.83
COc1cc(N2CCC(c3cccc(F)c3)C2=O)ccc1-c1cnco1 (centres unmarked) [Example 61, 3-(3-Fluorophenyl)-1-[3-methoxy-4-(1,3-oxazol-5-yl)phenyl]pyrrolidin-2-one]	0.262
COc1cc(N2CCN(Cc3ccccc3F)C2=O)ccc1-c1cnco1 [Example 74, 1-[(2-Fluorophenyl)methyl]-3-[3-methoxy-4-(1,3-oxazol-5-yl)phenyl]imidazolidin-2-one]	2.7
COc1cc(N2CCN(CCc3ccccc3)C2=O)ccc1-c1cn[nH]c1 [Example 43, 1-[3-Methoxy-4-(1H-pyrazol-4-yl)phenyl]-3-(2-phenylethyl)imidazolidin-2-one]	0.309
COc1cccc(CC2CCN(c3ccc(-c4cn[nH]c4)c(OC)c3)C2=O)c1 (centres unmarked) [Example 40, 3-[(3-Methoxyphenyl)methyl]-1-[3-methoxy-4-(1H-pyrazol-4-yl)phenyl]pyrrolidin-2-one]	0.334
O=C1C(c2cccc(F)c2)CCN1c1ccc(-c2cnco2)cc1 (centres unmarked) [Example 60, 3-(3-Fluorophenyl)-1-[4-(1,3-oxazol-5-yl)phenyl]pyrrolidin-2-one]	0.605
COc1cc(N2CCN(Cc3cccc(C(F)(F)F)c3)C2=O)ccc1-c1cn[nH]c1 [Example 20, 1-[3-Methoxy-4-(1H-pyrazol-4-yl)phenyl]-3-[[3-(trifluoromethyl)phenyl]methyl]imidazolidin-2-one]	0.0086
COc1cc(N2CCN(Cc3cccc(C)c3)C2=O)ccc1-c1cn[nH]c1 [Example 35, 1-[3-Methoxy-4-(1H-pyrazol-4-yl)phenyl]-3-(m-tolylmethyl)imidazolidin-2-one]	2.65
